{
  "source": "patent US10660335B2",
  "about": "“Plant disease control agent” (SDS BIOTECH K.K., priority 2011, dated 2020)",
  "type_in_all_cases": "cell-based",
  "key": {"Rhizoctonia solani": {"tested_on": "Rhizoctonia solani", "experiment": "In vitro antimicrobial activity, mycelial growth on potato dextrose agar medium", "conditions": "Concentration 10 ppm"}, "Botrytis cinerea": {"tested_on": "Botrytis cinerea", "experiment": "In vitro antimicrobial activity, mycelial growth on potato dextrose agar medium", "conditions": "Concentration 10 ppm"}, "Pyricularia oryzae": {"tested_on": "Pyricularia oryzae", "conditions": "Concentration 10 ppm; colony diameter vs control, 25° C., second day to seventh day"}},
  "data": [
    {"substance": "iso-C16 bacillomycin D [Comparative compound]", "values": [
      {"measurement": "Growth inhibition ratio (%) Rhizoctonia solani", "setting": "Rhizoctonia solani", "value": 9, "unit": "%"},
      {"measurement": "Growth inhibition ratio (%) Botrytis cinerea", "setting": "Botrytis cinerea", "value": 39, "unit": "%"},
      {"measurement": "Growth inhibition ratio (%) Pyricularia oryzae", "setting": "Pyricularia oryzae", "value": 35, "unit": "%"}
    ]}
  ]
}
